Results published in patent US20100286283A1, “MICROTUBULE-DISRUPTNG AGENT AND CANCER CELL PROLIFERATION INHIBITOR CONTAINING THE SAME” (priority 2007, published 2010).

What was measured:
HGC-27 cells [1] = test: Immunostaining of actin and tubulins in gastric cancer cells; type: cell-based; settings: 40 μM, 6 hours
Method: Gastric cancer cells (HGC-27 cells) were incubated with 6-shogaol at 2 μg/ml for 6 hours and then fixed, and actin was fluorescent-stained with Alexa Fluor phalloidin (Molecular Probes Inc., Eugene, Oreg.), and tubulins were fluorescent-stained with an anti-tubulin β antibody (Lab Vision Co., Fremont, Calif.) and Alexa Fluor 488 labeled second antibody (Molecular Probes, Inc.).
Gastric cancer cells (HGC-27 cells) were incubated with CH3—CO—CH═CH—(CH2)4—CH3, CH3—CO—(CH2)6—CH3 or CH3—CH2—CH═CH—(CH2)4—CH3 (40 μM) for 6 hours and then fixed, and tubulins were fluorescent-stained with anti-tubulin β antibody (Lab Vision Co., Fremont, Calif.) and Alexa Fluor 488 labeling second antibody (Molecular Probes, Inc.).

tubulins [2] = test: Tubulin polymerization experiment, absorbance at 340 nm; type: biochemical; settings: 20 μM tubulins
Method: Polymerization of 20 μM of tubulins was evaluated by measuring an absorbance at a wavelength of 340 nm.
Along with gradually polymerizing tubulins in a polymerization solution (80 mM PIPES, pH 6.9, 2 mM MgCl2, 0.5 mM EGTA, 5% glycerol and 1 mM GTP), an absorbance of the solution at a wavelength of 340 nm increases. The absorbance (340 nm) was measured in every 5 minutes to thus evaluate an influence given to the polymerization.

HGC-27 cells [3] = test: Viable cell ratio of HGC-27 cells, CellTiter96 cell proliferation assay; type: cell-based; settings: 0 to 40 μM, 24 hours
Method: 1×10^4 gastric cancer cells (HGC-27 cells) were seeded in 96-well plates, and incubated with CH3—CO—CH═CH—(CH2)4—CH3, CH3—CO—(CH2)6—CH3 or CH3—CH2—CH═CH—(CH2)4—CH3 (0 to 40 μM) for 24 hours from the next day. Cell viability was evaluated in a coloring method using CellTiter96 cell proliferation assay (Promega Co., Madison, Wis.), and an absorbance was measured. In this assay, living cells develop color with a reagent, and as the number of living cells is larger, the absorbance is higher. The viable cell ratio was calculated by (absorbance at each addition concentration)/(absorbance at 0 μM). Therefore, the viable cell ratio was 1.0 on the basis of 0 μM.

tubulins [4] = test: Tubulin binding experiment, comigration in SDS-PAGE; settings: for influence on comigration of NBD-PZ-CO—CH═CH—(CH2)5—CH3 with tubulins: compound coexisting with the probe
Method: Tubulins and a fluorescence dye, NBD-PZ or NBD-PZ-CO—CH═CH—(CH2)5—CH3 were reacted and electrophoresis (SDS-PAGE) was then performed. Binding with the tubulins was determined with comigration (fluorescence derived from NBD-PZ was detected with tubulins).

[5] = tested on: gastric cancer cells (HGC-27 cells, AGS cells, and KATO III cells); test: Cell viability of gastric cancer cells, Cell Titer 96 cell proliferation assay; type: cell-based; settings: 0 to 4 μg/ml, 24 hours, HGC-27, AGS
Method: 1×10^4 gastric cancer cells (HGC-27 cells, AGS cells, and KATO III cells) were seeded in 96 well-plates, and incubated with 6-shogaol (0 to 4 μg/ml) for 24 hours from the next day. Viability of the cells was evaluated in a coloring method using Cell Titer 96 cell proliferation assay (Promega Co., Madison, Wis.), and an absorbance was measured. In this assay, living cells develop color with a reagent, and as the number of living cells is larger, the absorbance is higher. The cell viability was calculated by (absorbance at each addition concentration of 6-shogaol)/(absorbance at 0 μg/ml). Therefore, the viable cell ratio was 1.0 on the basis of 0 μg/ml. 6-shogaol was purchased from Wako Pure Chemical Industries, Ltd. (Osaka, Japan) (purity of 98% or more). Each gastric cancer cell was available from the cell bank in RIKEN BioResource Center (RIKEN BRC cell bank) or ATCC (American Type Culture Collection).

[6] = tested on: gastric cancer cells (HGC-27 cells); test: Effect on tumor of gastric cancer cells transplanted to a nude mouse; type: in vivo; settings: 400 μl at 0 to 200 μg/ml into the abdominal cavity for 8 days; HGC-27 subcutaneous tumor
Method: 2.5×10^6 gastric cancer cells (HGC-27 cells) were subcutaneously inoculated into the flank of a nude mouse (7-week-old, purchased from Japan SLC, Inc.). After 3 weeks when the tumors had reached an average volume of approximately 40 mm^3, and then 400 μl of 6-shogaol at 0 to 200 μg/ml was administered into the abdominal cavity for 8 days. The tumor volume was measured before the first administration of 6-shogaol and after one day from the eighth administration. Comparing volumes of the tumor before and after administration of 6-shogaol, its magnification was evaluated as a growth ratio of the tumor.

HGC-27 cells [7] = test: Influence on cell cycle, BrdU flow cytometry; type: cell-based; settings: 2 μg/ml, 18 hours
Method: 2×10^5 gastric cancer cells (HGC-27 cells) were seeded in 12-well plates and incubated in the presence of 6-shogaol at 2 μg/ml for 18 hours from the next day, and then, further incubated in the presence of 10 μM of BrdU for 2 hours. In order to measure intake of BrdU in nuclei and DNA amounts in the nucleus, the cells were stained using a BrdU flow kit (BD Pharmingen, Inc., San Diego, Calif.). 10000 cells were analyzed with the flow cytometer manufactured by Beckman Coulter, Inc. (Fullerton, Calif.). The cells containing a large amount of DNA and a small amount of BrdU were considered to be in G2-M phase.

[8] = tested on: various cancer cells (HGC-27 cells, AGS cells, KATO III cells, Jurkat cells, A549 cells, and SW620 cells); test: Viability (ED50) of various cancer cells; type: cell-based; settings: 24 hours culture
Method: (§1) ED50: concentration of 6-shogaol, which decreases the cell viability to 0.5 (50%) as compared with the control.
(§2) ED50 of 6-shogaol was examined on various cancer cells (HGC-27 cells, AGS cells, KATO III cells, Jurkat cells, A549 cells, and SW620 cells) to evaluate whether or not 6-shogaol was also effective for cancer cells other than gastric cancer cells. The culturing time was set to 24 hours.

A549 cells = test: Viability (ED50) of A549 cells; type: cell-based; settings: 24 hours culture
Method: as §1, §2

[9] = tested on: SH groups contained in tubulins; test: Quantification of SH groups of tubulin, Ellman method; type: biochemical; settings: tubulins 2 μM, 100 μM of 6-shogaol
Method: SH groups contained in tubulins are converted to 5,5′-dithiobis-nitrobenzoic acid into thionitrobenzoate, and an absorbance of the solution at a wavelength of 412 nm (Ellman reaction) increases. The absorbance (412 nm) was measured to evaluate an influence given to an amount of SH groups.
An α,β-unsaturated carbonyl compound having a larger molecular weight reacted with more SH groups in the tubulins, and as a result, the amount of the SH groups was decreased and the absorbance (412 nm) was lowered (FIG. 8).

CCCCCC=CC(C)=O [CH3—CO—CH═CH—(CH2)4—CH3]
reticulate distribution of tubulins (structure of microtubule) (HGC-27 cells [1]): inhibited a reticulate distribution of tubulins
polymerization of tubulins (tubulins [2]; 250 μM compound): inhibited polymerization of tubulins
polymerization of tubulins (tubulins [2]; 500 μM compound): inhibited polymerization of tubulins
viable cell ratio (HGC-27 cells [3]): decreased the viable cell ratio

CCC=CCCCCC [CH3—CH2—CH═CH—(CH2)4—CH3]
reticulate distribution of tubulins (structure of microtubule) (HGC-27 cells [1]): only CH3—CO—CH═CH—(CH2)4—CH3 inhibited a reticulate distribution of tubulins
polymerization of tubulins (tubulins [2]; 500 μM compound): gave no influence
viable cell ratio (HGC-27 cells [3]): only CH3—CO—CH═CH—(CH2)4—CH3 (∘) decreased the viable cell ratio

CCCCC[C@H](O)CC(=O)CCc1ccc(O)c(OC)c1 [6-gingerol]
influence on comigration of NBD-PZ-CO—CH═CH—(CH2)5—CH3 with tubulins (tubulins [4]): did not give an influence on comigration

CCCCC/C=C/C(=O)CCc1ccc(O)c(OC)c1 [6-shogaol]
cell viability [5]: decreased the cell viability
growth ratio of tumor [6]: the growth of the tumor was inhibited
ratio of cells in G2-M stage (HGC-27 cells [7]): significantly increased
viability of various cancer cells [8]: decreased the viability
susceptibility to 6-shogaol compared with the other cancer cells (A549 cells): low
amount of SH groups contained in the tubulins [9]: approximately the same effect as 500 μM of CH3—CO—CH═CH—(CH2)5—CH3
influence on comigration of NBD-PZ-CO—CH═CH—(CH2)5—CH3 with tubulins (tubulins [4]): the comigration was inhibited

CCCCCCC=CC(=O)N1CCN(c2ccc([N+](=O)[O-])c3nonc23)CC1 [NBD-PZ-CO—CH═CH—(CH2)5—CH3]
binding with tubulins (comigration) (tubulins [4]; probe reacted with tubulins, SDS-PAGE): comigrated with the tubulins

CCCCCCCC(C)=O [CH3—CO—(CH2)6—CH3]
reticulate distribution of tubulins (structure of microtubule) (HGC-27 cells [1]): only CH3—CO—CH═CH—(CH2)4—CH3 inhibited a reticulate distribution of tubulins
polymerization of tubulins (tubulins [2]; 500 μM compound): gave no influence
viable cell ratio (HGC-27 cells [3]): only CH3—CO—CH═CH—(CH2)4—CH3 (∘) decreased the viable cell ratio
